Test results from US6221914A, “Sulfonamide bridging compounds that inhibit tryptase activity” (Array Biopharma Inc., priority 1998, dated 2001).

What was measured:
Assay type in all cases: biochemical
Human lung tryptase = experiment: Ki determination, human lung tryptase (Tosyl-Gly-Pro-Arg-pNA substrate); conditions: 50 mM Tris-HCl pH 8.0, 37° C., 1 nM tryptase, 320 μM GPR-pNA; read-out: Experimentally Determined Ki, Tryptase
Description: (§1) Protease inhibition was assayed according to published procedures with minor modifications using various proteases and specific chromogenic peptide p-nitroanilide substrates. Assays were performed in Costar ultra-low cluster 96-well microtiter plate (Costar Corning Corp., Cambridge Mass.). Each protease was incubated with various concentrations of the test compound for 15 min. at 37° C. or as otherwise indicated, in specific assay buffer, and the residual activity was then measured by addition of the substrate. p-Nitroaniline produced by the proteolysis was determined by measuring the change in absorbance at 405 nm on a SpectraMAX 340 plate reader (Molecular devices, Sunnyvale, Calif.).
(§2) 1. The inhibition constant, Ki is calculated from individual data points using the equation for a tight-binding inhibitor (See Beith, "Proteinase Inhibitors-Proceedings of 2nd Int. Res. Conference", Fritz, et al. eds, New York, p.4463-4469 (1974)):
(§3) vi /vo [((Ki '+[I]+[E]o)^2 -4 [I]o
(§4) [E]o)^1/2 (Ki '+[I]o -[E]o)]/2[E]o
(§5) where Ki ' is apparent inhibition constant; vi and vo are the inhibited and uninhibited rates, respectively; [I]o and [E]o are the total concentrations of inhibitor and enzyme, respectively.
(§6) [note: [E]o is determined by active site titration of enzyme]
(§7) The Ki values are obtained by correcting Ki ' values for the effect of substrate concentration according to: [formula]
(§8) 2. Other inhibition data (Ki >>[E]o), the Ki is calculated from using the equations for a competitive inhibitor: [formula]
Human lung tryptase purchased from Cortex Biochem (San Leandro, Calif.) was purified further on a Superdex 200 gel-filtration column. The active-site concentration of the enzyme was determined by spectrophotometric titration with 4-nitrophenyl 4'-guanidinobenzoate according to Schwartz, et al., J. Immunol., 114, 2304-2311 (1990). Tryptase activity was measured according to the procedures of Schwartz, et al., J. Biol. Chem., 261, 7372-7379 (1986) (See also, Schwartz, L. B., Methods In Enzymology, 244, 88 (1994)) with minor modifications, using Tosyl-Gly-Pro-Arg-p-nitroanilide ("GPR-pNA", Sigma Chemical Co., St. Louis, Mo., T-1637) as a chromogenic substrate. The reaction was performed in 50 mM Tris-HCl, pH 8.0, containing 150 mM NaCl and 0.02% Triton X-100 at 37° C. in Costar ultra-low cluster 96-well microtiter plates (Costar Corning Corp., Cambridge, Mass.). The amount of pNA produced by tryptase was determined by measuring the change in absorbance at 405 nm on a SpectraMAX 340 plate reader (Molecular devices, Sunnyvale, Calif.). The Km for the substrate was determined by Lineweaver-Burk analysis from initial velocities of substrate hydrolysis. The inhibition assay was carried out in a total volume of 200 μL. Tryptase (30 μL- final concentration 1 nM) was incubated with various concentrations of sample compound (50 μL) to be tested in the above assay buffer for 5 min. The reaction was started by the addition of substrate GPR-pNA (40 μL-final concentration 320 μM), and the residual activity was measured after 15 min. of incubation. The inhibition constant, Ki, was determined by fitting the inhibition data to a two-site competitive binding equation using data analysis program GraphPad PRISM (GraphPad Software, Inc., San Diego, Calif.).
(§9) The inhibition constant (Ki) of the test compounds against each proteolytic enzyme was determined according to Zitnik et al., Biochem. Biophys. Res. Commun. 232, 687-697 (1997)).

Human plasma thrombin = target: T1, Human plasma thrombin (Homo sapiens, UniProt P00734); experiment: Ki determination, human plasma thrombin (H-D-Phe-Pip-Arg-pNA); conditions: 50 mM Tris-HCl, pH 8.3, 100 mM NaCl, 1% BSA; read-out: Experimentally Determined Ki, Thrombin
T1 construct: from tissue; host or cells: human plasma
Description: as §1, §2, §3, §4, §5, §6, §7, §8
Human plasma thrombin activity was determined by using H-D-Phe-Pip-Arg-pNA in 50 mM Tris-HCl, pH 8.3, 100 mM NaCl, 1% BSA (See Lottenberg, et al. Meth. Enzymol. 80, 341-361 (1981)).
as §9

Human plasma factor Xa = target: T2, Human plasma factor Xa (Homo sapiens, UniProt P00742); experiment: Ki determination, human plasma factor Xa (N-Benzoyl-Ile-Glu-Gly-Arg-pNA); conditions: 50 mM Tris-HCl, pH 7.8, 200 mM NaCl, 0.05% BSA; read-out: Experimentally Determined Ki, Factor Xa
T2 construct: from tissue; host or cells: human plasma
Description: as §1, §2, §3, §4, §5, §6, §7, §8
Human plasma factor Xa activity was determined by using N-Benzoyl-Ile-Glu-Gly-Arg-pNA in 50 mM Tris-HCl, pH 7.8, 200 mM NaCl, 0.05% BSA (See Lottenberg, et al. Meth. Enzymol. 80, 341-361 (1981)).
as §9

Human plasma plasmin = target: T3, Human plasma plasmin (Homo sapiens, UniProt P00747); experiment: Ki determination, human plasma plasmin (Tosyl-Gly-Pro-Lys-pNA); conditions: 100 mM Tris-HCl, pH 7.4, 100 mM NaCl, 0.05% Triton X-100; read-out: Experimentally Determined Ki, Plasmin
T3 construct: from tissue; host or cells: human plasma
Description: as §1, §2, §3, §4, §5, §6, §7, §8
Human plasma plasmin activity was determined by using Tosyl-Gly-Pro-Lys-pNAin 100 mM Tris-HCl, pH 7.4, 100 mM NaCl, 0.05% Triton X-100 (See Lottenberg, et al., Meth. Enzymol. 80, 341-361 (1981)).
as §9

[1] = target: T4, Human Neutrophil elastase (Homo sapiens, UniProt P08246); experiment: Ki determination, human neutrophil elastase (pyroGlu-Pro-Val-pNA); conditions: 100 mM Tris-HCl, pH 8.3, 0.96 M NaCl, 1% BSA; read-out: Experimentally Determined Ki, Elastase
T4 construct: from tissue; host or cells: human neutrophils
T4 sequence (P08246 30-267): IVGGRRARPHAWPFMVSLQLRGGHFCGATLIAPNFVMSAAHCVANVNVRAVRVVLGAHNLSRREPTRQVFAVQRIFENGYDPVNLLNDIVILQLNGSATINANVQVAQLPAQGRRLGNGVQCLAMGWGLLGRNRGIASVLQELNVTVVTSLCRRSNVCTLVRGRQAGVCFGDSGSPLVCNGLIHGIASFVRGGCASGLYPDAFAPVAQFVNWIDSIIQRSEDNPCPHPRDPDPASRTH
Description: as §1, §2, §3, §4, §5, §6, §7, §8
Human Neutrophil elastase activity was determined by using pyroGlu-Pro-Val-pNA in 100 mM Tris-HCl, pH 8.3, 0.96 M NaCl, 1% BSA (See Kramps, et al. Scand. J. Clin. Lab. Invest. 43, 427-432 (1983)).
as §9

[2] = target: T5, Human Neutrophil Cathepsin G (Homo sapiens, UniProt P08311); experiment: Ki determination, human neutrophil cathepsin G (N-Suc-Ala-Ala-Pro-Phe-pNA); conditions: 625 mM Tris-HCl, pH 7.5, 2.5 mM MgCl2, 0.125% Brij 35; read-out: Experimentally Determined Ki, Cathepsin G
T5 construct: from tissue; host or cells: human neutrophils
T5 sequence (P08311 21-255): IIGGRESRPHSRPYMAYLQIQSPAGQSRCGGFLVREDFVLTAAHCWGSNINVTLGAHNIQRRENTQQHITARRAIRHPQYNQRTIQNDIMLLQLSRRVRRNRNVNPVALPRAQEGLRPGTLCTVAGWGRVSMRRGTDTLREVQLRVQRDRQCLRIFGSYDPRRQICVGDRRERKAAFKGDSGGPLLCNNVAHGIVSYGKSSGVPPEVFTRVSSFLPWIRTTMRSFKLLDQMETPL
Description: as §1, §2, §3, §4, §5, §6, §7, §8
Human Neutrophil Cathepsin G activity was determined by using N-Suc-Ala-Ala-Pro-Phe-pNA in 625 mM Tris-HCl, pH 7.5, 2.5 mM MgCl2, 0.125% Brij 35 (See Groutas et al., Arch. Biochem. Biophys. 294, 144-146 (1992)).
as §9

[3] = target: T6, Bovine pancreatic Trypsin (Bos taurus, UniProt P00760); experiment: Ki determination, bovine pancreatic trypsin (N-a-Benzoyl-L-Arg-pNA); conditions: 50 mM Tris-HCl, pH 8.2, 20 mM CaCl2; read-out: Experimentally Determined Ki, Trypsin
T6 construct: from tissue; host or cells: bovine pancreas
T6 sequence (P00760 24-246): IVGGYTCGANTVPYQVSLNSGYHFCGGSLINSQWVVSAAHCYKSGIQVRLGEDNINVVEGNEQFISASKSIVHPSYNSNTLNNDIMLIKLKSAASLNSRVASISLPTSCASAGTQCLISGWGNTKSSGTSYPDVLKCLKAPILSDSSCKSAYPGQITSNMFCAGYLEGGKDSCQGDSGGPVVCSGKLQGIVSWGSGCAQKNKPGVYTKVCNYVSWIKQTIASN
Description: as §1, §2, §3, §4, §5, §6, §7, §8
Bovine pancreatic Trypsin (TPCK-treated) activity was determined by using N-a-Benzoyl-L-Arg-pNA in 50 mM Tris-HCl, pH 8.2, 20 mM CaCl2 (See Somorin, et al., J. Biochem. 85, 157-162 (1979)).
as §9

T3 sequence (P00747 581-810 limits assumed): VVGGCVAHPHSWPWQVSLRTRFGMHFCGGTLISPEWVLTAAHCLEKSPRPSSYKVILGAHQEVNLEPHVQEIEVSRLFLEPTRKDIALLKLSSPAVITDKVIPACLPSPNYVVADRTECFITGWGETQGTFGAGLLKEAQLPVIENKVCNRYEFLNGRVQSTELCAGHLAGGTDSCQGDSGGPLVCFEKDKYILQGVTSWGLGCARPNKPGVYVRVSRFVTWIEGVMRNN
T3 sequence (P00747 97-580 partner limits assumed): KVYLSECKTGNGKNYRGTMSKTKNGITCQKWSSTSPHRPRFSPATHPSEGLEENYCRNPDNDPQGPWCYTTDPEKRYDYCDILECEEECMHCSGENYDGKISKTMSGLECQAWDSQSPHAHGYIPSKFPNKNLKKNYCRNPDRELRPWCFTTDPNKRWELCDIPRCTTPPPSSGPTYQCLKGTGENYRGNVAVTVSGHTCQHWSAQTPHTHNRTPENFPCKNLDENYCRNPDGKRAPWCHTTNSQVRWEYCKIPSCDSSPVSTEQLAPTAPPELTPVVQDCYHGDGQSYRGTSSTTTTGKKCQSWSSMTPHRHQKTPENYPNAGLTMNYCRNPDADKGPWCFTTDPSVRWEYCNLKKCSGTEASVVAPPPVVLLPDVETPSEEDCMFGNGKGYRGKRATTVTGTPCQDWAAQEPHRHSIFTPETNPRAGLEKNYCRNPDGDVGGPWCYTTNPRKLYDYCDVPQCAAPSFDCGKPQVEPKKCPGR
T2 sequence (P00742 235-488 limits assumed): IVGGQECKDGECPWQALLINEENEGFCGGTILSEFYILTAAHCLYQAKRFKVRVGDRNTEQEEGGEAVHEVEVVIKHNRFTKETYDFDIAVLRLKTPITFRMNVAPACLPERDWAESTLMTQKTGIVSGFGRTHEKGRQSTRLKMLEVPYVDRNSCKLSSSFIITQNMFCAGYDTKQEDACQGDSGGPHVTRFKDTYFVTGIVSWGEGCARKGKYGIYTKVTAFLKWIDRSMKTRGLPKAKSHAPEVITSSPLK
T2 sequence (P00742 41-179 partner limits assumed): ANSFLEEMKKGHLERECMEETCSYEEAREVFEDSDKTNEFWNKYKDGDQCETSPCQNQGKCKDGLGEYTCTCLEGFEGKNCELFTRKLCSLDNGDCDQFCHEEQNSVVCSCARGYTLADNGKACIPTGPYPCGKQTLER

Ki (Human lung tryptase) [µM] | Ki (Human plasma thrombin) [µM] | Ki (Human plasma factor Xa) [µM] | Ki (Human plasma plasmin) [µM] | Ki [1] [µM] | Ki [2] [µM] | Ki [3] [µM] | SMILES
0.25 | > 100 | 47 | > 100 | > 100 | > 100 | – | N=C(N)c1ccc(S(=O)(=O)NCc2ccc(OCCCCCOc3ccc(CNS(=O)(=O)c4ccc(C(=N)N)cc4)cc3)cc2)cc1 [Example 42, 1,5-Bis-{4-[(4-carbamimidoyl-benzenesulfonylamino)-methyl]-phenoxy}-pentane]
3.2 | – | – | – | – | – | 8 | N=C(N)c1ccc(S(=O)(=O)NCc2ccc(OCCCCCCOc3ccc(CNS(=O)(=O)c4ccc(C(=N)N)cc4)cc3)cc2)cc1 [Example 44, 1,6-Bis-{4-[(4-carbamimidoyl-benzenesulfonylamino)-methyl]-phenoxy}-hexane]
1.5 | – | – | – | – | – | – | N=C(N)c1ccc(S(=O)(=O)NCc2ccc(OCCCCCCCOc3ccc(CNS(=O)(=O)c4ccc(C(=N)N)cc4)cc3)cc2)cc1 [Example 46, 1,7-Bis-{4-[(4-carbamimidoyl-benzenesulfonylamino)-methyl]-phenoxy}-heptane]
12.5 | – | – | – | – | – | 4.2 | N=C(N)c1ccc(S(=O)(=O)NCc2ccc(OCCCCOc3ccc(CNS(=O)(=O)c4ccc(C(=N)N)cc4)cc3)cc2)cc1 [Example 48, 1,4-Bis-{4-[(4-carbamimidoyl-benzenesulfonylamino)-methyl]-phenoxy}-butane]
